*1 amine or outer side, *2 acyl side, *3 side chain or, on linkers, in order; H or OH if unused. Where a SMILES comes first, the peptide text is derived from it. Bridges are numbered along the chain shown (N, C = ends). [ ]: non-standard residue; d: D form. cBu(1-CO,cis-3-CH2NH) = O=C([C@H]1C[C@@H](CN[*:1])C1)[*:2]; NMeNva(5-imidazol-1-yl) = CN[C@@H](CCCn1ccnc1)C(=O)O; Phe(4-guanidino) = N=C(N)Nc1ccc(C[C@H](N)C(=O)O)cc1; X65 = O=C([C@H](CCCn1ccnc1[N+](=O)[O-])N[*:1])[*:2]; X59 = O=C([C@H](Cc1ccc(CN2CCCC2)cc1)N[*:1])[*:2]; Ala(pyrimidin-5-yl) = N[C@@H](Cc1cncnc1)C(=O)O; X45 = CN([C@@H](Cc1ccncc1F)C(=O)[*:2])[*:1]; X67 = O=C([C@H](Cc1ncc(Cl)cn1)N[*:1])[*:2]; X20 = CN([C@@H](Cc1cnco1)C(=O)[*:2])[*:1]; X13 = O=C([C@H](Cc1ccncc1F)N[*:1])[*:2]; NMeAha = CN[C@@H](CCN=[N+]=[N-])C(=O)O; Nle(5,5-F2) = CC(F)(F)CC[C@H](N)C(=O)O; Phe(3-F) = N[C@@H](Cc1cccc(F)c1)C(=O)O; X28 = O=C([C@H](Cc1ncccn1)N[*:1])[*:2]; 1Nal = N[C@@H](Cc1cccc2ccccc12)C(=O)O; NHCH2CH2SCH2CO = O=C(CSCCN[*:1])[*:2]; Phe(2-F) = N[C@@H](Cc1ccccc1F)C(=O)O; X31 = O=C([C@H](CCC1CC1)N[*:1])[*:2]; NMe3Pal = CN[C@@H](Cc1cccnc1)C(=O)O; X1 = O=C(C12CC(CN[*:1])(C1)C2)[*:2]; NMeOrn(Me) = CNCCC[C@H](NC)C(=O)O; Ala(cPr) = N[C@@H](CC1CC1)C(=O)O; NMeF = CN[C@@H](Cc1ccccc1)C(=O)O; PhLac = O=C(O)[C@@H](O)Cc1ccccc1; X9 = CCCC[C@H](O[*:1])C(=O)[*:2]; 3Pal = N[C@@H](Cc1cccnc1)C(=O)O; 4Pal = N[C@@H](Cc1ccncc1)C(=O)O; d3Pal = N[C@H](Cc1cccnc1)C(=O)O; Gly(N(CH2)3NH2) = NCCCNCC(=O)O; Ahp(2) = CCCCC[C@H](N)C(=O)O; Cba = N[C@@H](CC1CCC1)C(=O)O; hLeu = CC(C)CC[C@H](N)C(=O)O; X64 = O=C(C#CCN[*:1])[*:2]; NMeS = CN[C@@H](CO)C(=O)O; αMeC = C[C@](N)(CS)C(=O)O; NMeA = CN[C@@H](C)C(=O)O; Nle = CCCC[C@H](N)C(=O)O; Nva = CCC[C@H](N)C(=O)O
Target: KRAS-G12D protein (Homo sapiens, UniProt P01116, G12D)
Test: SOS-mediated nucleotide exchange assay (BODIPY-GDP / Tb-streptavidin TR-FRET)
Format: biochemical

Chain of KRAS-G12D protein (P01116 1-188 isoform P01116-2 G12D): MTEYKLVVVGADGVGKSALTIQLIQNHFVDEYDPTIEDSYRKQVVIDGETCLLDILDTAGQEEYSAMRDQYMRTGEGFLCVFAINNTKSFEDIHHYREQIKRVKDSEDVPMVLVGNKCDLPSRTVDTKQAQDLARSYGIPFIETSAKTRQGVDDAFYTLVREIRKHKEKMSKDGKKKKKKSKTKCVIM

| SMILES | EC50 [nM] |
| --- | --- |
| CC(C)CC[C@@H]1NC(=O)[C@H](Cc2ccccc2F)NC(=O)[C@H](CC2CC2)NC(=O)[C@H](Cc2ncccn2)NC(=O)[C@H](C)N(C)C(=O)[C@H](Cc2ccccc2)OC(=O)C23CC(CNC(=O)[C@H](Cc4ccccc4)N(C)C1=O)(C2)C3 [compound 281, cyclo(FLac-NMeA-2PyrimAla-cPrA-Phe2F-hL-NMeF-amBCP)] (cyclo([Ala(cPr)][Phe(2-F)][hLeu][NMeF][X1][PhLac][NMeA][X28])) | 1210 |
| CCCC[C@@H]1NC(=O)[C@H](Cc2ccc(O)cc2)NC(=O)[C@H](CCC)NC(=O)[C@H](Cc2ccc(O)cc2)NC(=O)[C@H](CCCNC(=N)N)NC(=O)[C@H](Cc2ccccc2)NC(=O)CSCCNC(=O)[C@H](Cc2ccccc2)N(C)C1=O [compound 76, cyclo(F-R-Y-Nva-Y-Nle-NMeF-Cysteamine-ClAc)] (cyclo(FRY[Nva]Y[Nle][NMeF][NHCH2CH2SCH2CO])) | 5310 |
| CCCC[C@@H]1NC(=O)[C@H](Cc2ccccc2F)NC(=O)[C@H](CCCC)OC(=O)[C@H](Cc2cccnc2)NC(=O)[C@H](CCN=[N+]=[N-])N(C)C(=O)[C@H](Cc2ccccc2)NC(=O)C23CC(CNC(=O)[C@H](Cc4cccnc4)N(C)C1=O)(C2)C3 [compound 250, cyclo(F-NMeDabN3-3Pal-NleLac-Phe2F-Nle-NMe3Pal-amBCP)] (cyclo(F[NMeAha][3Pal][X9][Phe(2-F)][Nle][NMe3Pal][X1])) | 3880 |
| CC(C)CC[C@@H]1NC(=O)[C@H](Cc2ccccc2F)NC(=O)[C@H](CC2CC2)NC(=O)[C@H](Cc2cncnc2)NC(=O)[C@H](C)N(C)C(=O)[C@H](Cc2ccccc2)OC(=O)C23CC(CNC(=O)[C@H](Cc4ccncc4F)N(C)C1=O)(C2)C3 [compound 337, cyclo(FLac-NMeA-PyrimAla-cPrA-Phe2F-hL-NMe4Pal2F-amBCP)] (cyclo([Ala(cPr)][Phe(2-F)][hLeu][X45][X1][PhLac][NMeA][Ala(pyrimidin-5-yl)])) | 3 |
| CCCC[C@@H]1NC(=O)[C@H](Cc2ccccc2F)NC(=O)[C@H](CC2CCC2)NC(=O)[C@@H](Cc2cccnc2)NC(=O)[C@H](CCCn2ccnc2[N+](=O)[O-])NC(=O)[C@H](Cc2ccccc2)NC(=O)C23CC(CNC(=O)[C@H](Cc4cccnc4)N(C)C1=O)(C2)C3 [compound 107, cyclo(F-NO2IMNva-d3Pal-cBuA-Phe2F-Nle-NMe3Pal-amBCP)] (cyclo(F[X65][d3Pal][Cba][Phe(2-F)][Nle][NMe3Pal][X1])) | 242 |
| C[C@H]1C(=O)N[C@@H](Cc2cncnc2)C(=O)N[C@@H](CC2CCC2)C(=O)N[C@@H](Cc2ccccc2F)C(=O)N[C@@H](CCC2CC2)C(=O)N(C)[C@@H](Cc2ccccc2)C(=O)NCC23CC(C2)(C3)C(=O)O[C@@H](Cc2ccccc2)C(=O)N1C [compound 115, cyclo(FLac-NMeA-PyrimAla-cBuA-Phe2F-hcPrA-NMeF-amBCP)] (cyclo([Cba][Phe(2-F)][X31][NMeF][X1][PhLac][NMeA][Ala(pyrimidin-5-yl)])) | 4 |
| C[C@H]1C(=O)N[C@@H](Cc2cncnc2)C(=O)N[C@@H](CC2CC2)C(=O)N[C@@H](Cc2ccccc2F)C(=O)NC2CC/C=C\CC[C@@H](C(=O)NCC34CC(C3)(C4)C(=O)O[C@@H](Cc3ccccc3)C(=O)N1C)N(C)C2=O [SEQ ID NO: 182, cyclo(FLac-NMeA-PyrimAla-cPrA-Phe2F-Hag-NMeHag-amBCP)] | 225 |
| CC(C)CC[C@@H]1NC(=O)[C@H](Cc2cccc(F)c2)NC(=O)[C@H](CC2CCC2)NC(=O)[C@H](Cc2cncnc2)NC(=O)[C@H](C)N(C)C(=O)[C@H](Cc2ccccc2)OC(=O)C23CC(CNC(=O)[C@H](Cc4ccccc4)N(C)C1=O)(C2)C3 [compound 303, cyclo(FLac-NMeA-PyrimAla-cBuA-Phe3F-hL-NMeF-amBCP)] (cyclo([Cba][Phe(3-F)][hLeu][NMeF][X1][PhLac][NMeA][Ala(pyrimidin-5-yl)])) | 60.9 |
| CCCCC[C@@H]1NC(=O)[C@H](Cc2ccc(OC)cc2)NC(=O)[C@H](CC2CCC2)NC(=O)[C@H](Cc2cccnc2)NC(=O)[C@H](CCCNC(=N)N)NC(=O)[C@H](Cc2ccccc2)NC(=O)CSC[C@@](C)(C(N)=O)NC(=O)[C@H](Cc2cnco2)N(C)C1=O [compound 379, cyclo(F-R-3Pal-cBuA-TyrOMe-Ahp-NMeAla5Oxa-aMeCl-ClAc)] ({CH2CO}-FR[3Pal][Cba]Y(Me)[Ahp(2)][X20][αMeC]-NH2; thioether N-8) | 48.9 |
| CCCCC[C@@H]1NC(=O)[C@H](Cc2ccc(OC)cc2)NC(=O)[C@H](CC2CCC2)NC(=O)[C@H](Cc2ccc(NC(=N)N)cc2)NC(=O)[C@H](CCCNC)N(C)C(=O)[C@H](Cc2ccccc2)NC(=O)CSC[C@@](C)(C(N)=O)NC(=O)[C@H](Cc2ccccc2)N(C)C1=O [compound 385, cyclo(F-NMeOrnMe-Phe4Gn-cBuA-TyrOMe-Ahp-NMeF-aMeCl-ClAc)] ({CH2CO}-F[NMeOrn(Me)][Phe(4-guanidino)][Cba]Y(Me)[Ahp(2)][NMeF][αMeC]-NH2; thioether N-8) | 19.7 |
| CCCCC[C@@H]1NC(=O)[C@H](Cc2ccc(OC)cc2)NC(=O)[C@H](CC2CCC2)NC(=O)[C@H](Cc2ccc(NC(=N)N)cc2)NC(=O)CN(CCCN)C(=O)[C@H](Cc2ccccc2)NC(=O)CSC[C@@](C)(C(N)=O)NC(=O)[C@H](Cc2ccccc2)N(C)C1=O [compound 388, cyclo(F-NPrNH2G-Phe4Gn-cBuA-TyrOMe-Ahp-NMeF-aMeCl-ClAc)] ({CH2CO}-F[Gly(N(CH2)3NH2)][Phe(4-guanidino)][Cba]Y(Me)[Ahp(2)][NMeF][αMeC]-NH2; thioether N-8) | 121 |
| COc1ccc(C[C@@H]2NC(=O)[C@H](CC3CCC3)NC(=O)[C@H](Cc3cccnc3)NC(=O)[C@H](CCCNC(=N)N)NC(=O)[C@H](Cc3ccccc3)NC(=O)CSC[C@](C)(C(N)=O)NC(=O)[C@@H]3CCCCCC[C@H](NC2=O)C(=O)N3C)cc1 [SEQ ID NO: 188, cyclo(F-R-3Pal-cBuA-TyrOMe-RdHagNMeHag-aMeC-C1Ac)] | 299 |
| CCCC[C@@H]1NC(=O)[C@H](Cc2ccc(CN3CCCC3)cc2)NC(=O)[C@H](CCCn2ccnc2)N(C)C(=O)[C@H](Cc2ccccc2)NC(=O)[C@H]2C[C@@H](CNC(=O)[C@H](Cc3cccnc3)N(C)C(=O)[C@H](CCCC)NC(=O)[C@H](Cc3ccccc3F)NC1=O)C2 [compound 266, cyclo(F-NMeNvalmid-Phe4cPyrr-Nle-Phe2F-Nle-NMe3Pal-c3amCb1c)] (cyclo(F[NMeNva(5-imidazol-1-yl)][X59][Nle][Phe(2-F)][Nle][NMe3Pal][cBu(1-CO,cis-3-CH2NH)])) | 215 |
| C[C@H]1C(=O)N[C@@H](Cc2cncnc2)C(=O)N[C@@H](CC2CCC2)C(=O)N[C@@H](Cc2ccccc2F)C(=O)N[C@@H](CCC(C)(F)F)C(=O)N(C)[C@@H](Cc2ccccc2)C(=O)NCC23CC(C2)(C3)C(=O)O[C@@H](Cc2ccccc2)C(=O)N1C [compound 224, cyclo(FLac-NMcA-PyrimAla-cBuA-Phe2F-Nle3F2-NMeF-amBCP)] (cyclo([Cba][Phe(2-F)][Nle(5,5-F2)][NMeF][X1][PhLac][NMeA][Ala(pyrimidin-5-yl)])) | 2.39 |
| CCCC[C@@H]1NC(=O)[C@H](Cc2ccccc2F)NC(=O)[C@H](CC2CCC2)NC(=O)[C@@H](Cc2cccnc2)NC(=O)[C@H](CCCNC(=N)N)NC(=O)[C@H](Cc2ccccc2)NC(=O)C#CCNC(=O)[C@H](Cc2cccnc2)N(C)C1=O [compound 104, cyclo(F-R-d3Pal-cBuA-Phe2F-Nle-NMe3Pal-amBYA)] (cyclo(FR[d3Pal][Cba][Phe(2-F)][Nle][NMe3Pal][X64])) | 387 |
| CCC[C@@H]1NC(=O)[C@H](Cc2ccc(O)cc2)NC(=O)[C@H](CC(C)C)NC(=O)[C@H](Cc2ccc(O)cc2)NC(=O)[C@H](CCCNC(=N)N)NC(=O)[C@H](Cc2ccccc2)NC(=O)CSC[C@@H](C(N)=O)NC(=O)[C@H](Cc2ccccc2)N(C)C1=O [compound 16, cyclo(F-R-Y-L-Y-Nva-NMeF-Cl-ClAc)] | 3620 |
| CCCC[C@@H]1NC(=O)[C@H](Cc2cncnc2)NC(=O)[C@H](CO)N(C)C(=O)[C@H](Cc2ccccc2)OC(=O)C23CC(CNC(=O)[C@H](Cc4cccnc4)N(C)C(=O)[C@H](CCCC)NC(=O)[C@H](Cc4ccccc4F)NC1=O)(C2)C3 [compound 119, cyclo(FLac-NMeS-PyrimAla-Nle-Phe2F-Nle-NMe3Pal-amBCP)] (cyclo([NMe3Pal][X1][PhLac][NMeS][Ala(pyrimidin-5-yl)][Nle][Phe(2-F)][Nle])) | 375 |
| CCCC[C@@H]1NC(=O)[C@H](Cc2ccncc2)NC(=O)[C@H](CCCNC(=N)N)NC(=O)[C@H](Cc2cccc3ccccc23)NC(=O)CSC[C@H](C(=O)O)NC(=O)[C@H](Cc2ccccc2)N(C)C(=O)[C@H](CCC)NC(=O)[C@H](Cc2ccc(O)cc2)NC1=O [compound 140, cyclo(INal-R-4Pal-Nle-Y-Nva-NMeF-dC-ClAc)] ({CH2CO}-[1Nal]R[4Pal][Nle]Y[Nva][NMeF][dC]-OH; thioether N-8) | 1170 |
| CC(C)CC[C@@H]1NC(=O)[C@H](Cc2ccncc2F)NC(=O)[C@H](CC2CC2)NC(=O)[C@H](Cc2cncnc2)NC(=O)[C@H](C)N(C)C(=O)[C@H](Cc2ccccc2)OC(=O)C23CC(CNC(=O)[C@H](Cc4ccccc4)N(C)C1=O)(C2)C3 [compound 214, cyclo(FLac-NMeA-PyrimAla-cPrA-4Pal2F-hL-NMeF-amBCP)] (cyclo([Ala(cPr)][X13][hLeu][NMeF][X1][PhLac][NMeA][Ala(pyrimidin-5-yl)])) | 2.69 |
| CCCC[C@@H]1NC(=O)[C@H](Cc2ncc(Cl)cn2)NC(=O)[C@H](C)N(C)C(=O)[C@H](Cc2ccccc2)OC(=O)C23CC(CNC(=O)[C@H](Cc4ccccc4)N(C)C(=O)[C@H](CCCC)NC(=O)[C@H](Cc4ccccc4F)NC1=O)(C2)C3 [compound 321, cyclo(FLac-NMeA-Ala2Pyrim5Cl-Nle-Phe2F-Nle-NMeF-amBCP)] (cyclo([NMeA][X67][Nle][Phe(2-F)][Nle][NMeF][X1][PhLac])) | 617 |
| CCCC[C@@H]1NC(=O)[C@H](Cc2cccnc2)NC(=O)[C@H](CCCNC(=N)N)NC(=O)[C@H](Cc2ccccc2)NC(=O)CSC[C@@](C)(C(=O)O)NC(=O)[C@H](Cc2cccnc2)N(C)C(=O)[C@H](CCCC)NC(=O)[C@H](Cc2ccccc2F)NC1=O [compound 148, cyclo(F-R-3Pal-Nle-Phe2F-Nle-NMe3Pal-aMeC-ClAc)] ({CH2CO}-FR[3Pal][Nle][Phe(2-F)][Nle][NMe3Pal][αMeC]-OH; thioether N-8) | 370 |
